Experimental data: EPA's ToxValDB 9.5 (doi:10.2903/j.efsa.2009.201r)

Legend:
Apis mellifera = settings: acute; duration: 48 hours; dermal; mortality
Daphnia magna = settings: chronic/long-term; duration: 21 days; growth
Canidae = settings: chronic; duration: 1 years; oral; Dog Other; body weight
Tagia sp. = settings: mortality
Rattus norvegicus = settings: for NOAEL: chronic
Anas platyrhynchos = settings: oral, mortality

COc1nc(C)nc(NC(=O)NS(=O)(=O)c2ccccc2Cl)n1 [Chlorsulfuron]
LD50 (Apis mellifera): > 100 µg/piece
NOEC (Daphnia magna): 12 mg/L
LC50 (Oncorhynchus mykiss; acute, duration: 96 hours, mortality): > 122 µg/mL
NOEC (Oncorhynchus mykiss; chronic/long-term, duration: 77 days, growth): 32 mg/L
NOAEL (Canidae): 60.6 mg/kg-day
LD50 (Colinus virginianus; acute, oral, mortality): > 5000 mg/kg-day
NOEL (Colinus virginianus; reproduction developmental): 28 mg/kg-day
LC50 (Tagia sp.; acute, duration: 14 days): > 750 mg/kg
NOEC (Tagia sp.; chronic/long-term, duration: 56 days): 188 mg/kg
LD50 (Rattus norvegicus; acute, oral, mortality): > 5540 mg/kg-day
NOAEL (Rattus norvegicus): 75 mg/kg-day
NOAEL (Rattus norvegicus; duration: 2 years, histopathology: neoplastic): 20 mg/kg-day
LD50 (Anas platyrhynchos; acute, unspecified): > 5000 mg/kg-day
LC50 (Anas platyrhynchos; short-term, feed): > 634 mg/kg-day
